Converted amounts (≈) assume the structure as drawn.

Broadly, the solubility is the concentration that dissolves in the medium under given conditions. Read a high solubility as a readily soluble substance.

Assay type in all cases: physicochemical
A short description of data set [1]: Suspension equilibration experiments (thermodynamically stable polymorphic form). To be noted: at least in the temperature range from 25° C. to 60° C. The method, then:
Suspension equilibration experiments in a variety of different solvents and solvent mixtures were carried out at various temperatures.
In addition, the use of high temperatures can help overcome kinetic barriers to polymorphic interconversion.
The experiments at 5° C. were carried out to search for solvated (and additional hydrated) forms of compound 1 since experiments at low temperatures are conducive to solvate and hydrate formation.
The amorphous material was used as the starting material for several suspension equilibration experiments (temperature=5° C., 30° C., 75° C., or 90° C.; duration=1 d, 5 d, or 7 d; solvent=THF, 96:4 acetone/H2O, 98.5/1.5 acetone/H2O, 2-PrOH, or water). Since the amorphous form is in a higher energy state than the crystalline form of the starting material compound 1, potential kinetic barriers might not poses as much of a hindrance for a transformation. The amorphous form of compound 1 was used as starting material for experiments to determine the stability range of compound 1 by equilibration at various water activity levels.
Upon completion of the suspension equilibration experiments, the recovered products were examined by Raman spectroscopy both immediately after filtration and after 30 min of drying under vacuum at room temperature. […]

Data set [2] is described as follows: Aqueous solubility determination (2 h equilibration in doubly distilled water, HPLC). As for the experimental part: Approximately 0.3 mL of doubly distilled water was added to 3-10 mg of the substance to be measured. The resulting suspension/solution was equilibrated in a temperature-controlled Eppendorf Thermomixer Comfort shaker for 2 h at 25° C. at a shaking rate of 500 rpm. The solid phase was recovered by filter centrifugation (0.10-μm PVDF membrane) and examined by FT-Raman spectroscopy. The pH of the corresponding solution was determined with a Metrohm 713 pH meter. The concentration of the solution was determined by HPLC (see below).
Standard solutions of the SP196-FD-P1 free drug of compound 1 and the L-malate salt of compound 1 (SP196-MLA-P4) were prepared in the concentration range of 0.2-0.05 mg/mL for the construction of a calibration curve.

Data set [3] can be described thus: DVS (dynamic vapor sorption) isotherm / hygroscopicity. As for the experimental part:
Projekt Messtechnik Sorptions Prüfsystem SPS 11-100n or Surface Measurement Systems DVS-1. The sample was placed on an aluminum or platinum holder on top of a microbalance and allowed to equilibrate for 2 h at 50% r.h. before starting one of two pre-defined humidity programs: • (1) 2 h at 50% r.h.; • (2) 50→0% r.h. […] (5%/h); 5 h at 0% r.h.; and • (4) 0→50% r.h. (5%/h); 2 h at 50% r.h.

Data set [4] can be described thus: Stability of amorphous material under ambient conditions (re-examination by XRPD). From the text:
The amorphous material appears to be stable for at least 5 days under ambient conditions, as it was unchanged after re-examination by XRPD (data not shown).

Consider `CCn1cc(C(=O)N2CCOCC2)c(=O)c2cc(NC3Cc4ccccc4C3)cnc21` [Form C, 1-ethyl-6-(indan-2-ylamino)-3-(morpholine-4-carbonyl)-1,8-naphthyridin-4-one], for which the “thermodynamic stability of the polymorph” value in data set [1] is reported as “thermodynamically stable polymorph”. In addition, in data set [2] (after 2 h equilibration at 25° C. in water), the “FT-Raman spectrum of the solid residue after aqueous solubility determination” value is “unchanged”. Besides, in data set [2] (doubly distilled water, 25 °C, pH 7.5, water, thermodynamic from solid, after 2 h equilibration at 25° C., pH=7.5 of saturated solution), the solubility at 2 h was about 40 µg/mL (≈ 95.6 µM). In data set [3] (after return from 95% r.h. to 50% r.h.), the “DVS final mass above the starting mass” value is reported as “equal to the starting mass”. Besides, the hygroscopicity classification entry in data set [3] (based on mass gain at 85% r.h.) was “slightly hygroscopic (slightly hygroscopic (mass increase<2% and ≥0.2%))”. Besides, the “DVS reversible mass loss” value in data set [3] (decreasing relative humidity from 50% r.h. to 0%) is about 0.3 wt %. The DVS mass increase in data set [3] (from 50% to 85% r.h.) is listed as about 0.2 wt %. Also, the “DVS (total) mass increase” value in data set [3] (increasing relative humidity from 50% r.h. to 95% r.h.) is given as about 0.6 wt %. In addition, in data set [3] (solid form after DVS cycle), the “FT-Raman spectrum of the material after the DVS measurement” value is reported as “corresponds to the spectrum of the material before the DVS measurement”.
Regarding `CCn1cc(C(=O)N2CCOCC2)c(=O)c2cc(NC3Cc4ccccc4C3)cnc21` [Form D, 1-ethyl-6-(indan-2-ylamino)-3-(morpholine-4-carbonyl)-1,8-naphthyridin-4-one], the “thermodynamic stability of the polymorph” value in data set [1] was “thermodynamically less stable than Form C”.
As to `CCn1cc(C(=O)N2CCOCC2)c(=O)c2cc(NC3Cc4ccccc4C3)cnc21` [Form A, 1-ethyl-6-(indan-2-ylamino)-3-(morpholine-4-carbonyl)-1,8-naphthyridin-4-one], in data set [4], the “stability of the amorphous material (unchanged by XRPD)” value is reported as “at least 5 days”.

The record behind these values is patent US10266529B2, “Salts, co-crystals, and polymorphs of an anxiolytic compound” (Bionomics Limited, priority 2013, dated 2019).
